Test system: PPARs target genes (PDK4, ACO, UCP2) in hepatic and skeletal muscle tissue
Test: Expression of PPAR target genes in liver and skeletal muscle of db/db mice (quantitative RT-PCR)
Assay type: in vivo, mouse
Settings: 50 mpk
Protocol: The effectiveness of the compounds according to the invention is also evaluated by measuring, in hepatic and muscular (skeletal) tissue, the expression of the genes involve in lipid and/or carbohydrate metabolism and in energy dissipation. Each level of gene expression is normalized in regarding the expression level of reference gene 36B4 in the hepatic tissue, or regarding the expression level of reference gene 18S in the gastrocnemius skeletal muscle. The induction factor, i.e. the ratio between the relative signal (induced by the compound according to the invention) and the average of relative values relating to the control group, is then calculated. The higher the induction factor is, the more the compound promotes gene expression. The final result is expressed as an average of the induction values obtained with each experimental group.
Female db/db mice were kept on a 12 hour/12 hour light/dark cycle at a constant temperature of 20±3° C. After a one week acclimatization period, the mice were weighed and divided into groups of 8 animals selected such as the distribution of body weight and of plasma lipid rate, determined before the experiment, was uniform. […] Taking of food and weight gain are recorded throughout the experiment. […]
1 μg of total RNA (quantified by spectrophotometry) was then reverse-transcripted into complementary DNA by means of a 1 hour reaction at 37° C. in a total volume of 20 μl containing a 1× buffer (Sigma), 1.5 mM of DTT, 0.18 mM of dNTPs (Promega), 200 ng of pdN6 (Amersham), 30U of RNase inhibitor (Sigma), and 1 μl of MMLV-RT (Sigma).
The PCR quantitative experiments were carried out using the MyiQ Single-Color Real-Time PCR Detection System (Biorad, Marnes-la-Coquette, France) and were performed using the iQ SYBR Green Supermix kit according to the provider's recommendations, in 96-well plates, with 5 μl of diluted reverse transcription solutions and at a hybridization temperature of 55° C. […]
The fluorescent quantity emitted is directly proportional to the amount of cDNA present at the beginning of the reaction and amplified during the PCR. […]

CCCOc1ccc(C(=O)CCc2cc(C)c(OC(C)(C)C(=O)O)c(C)c2)cc1 [Compound 8, 2-[2,6-dimethyl-4-[3-[4-(propyloxy)phenyl]-3-oxo-propyl]phenoxyl]-2-methylpropanoic acid]
hepatic expression of the genes coding for PDK4 (28 days (FIG. 3-4)): significant increase
hepatic expression of the genes coding for ACO (28 days (FIG. 3-5)): significant increase
expression of the gene coding for UCP2 in the skeletal muscle (28 days (FIG. 3-6)): increase

— US8258182B2, “Substituted 1,3-diphenylpropane derivatives, preparations and uses thereof” (Genfit, priority 2006, dated 2012)
